This experiment deals with AlmA. Format: biochemical, Streptomyces sp. A012304. As to conditions: succinyl-CoA regenerated, 20 mM HEPES-NaOH pH 7.5, 20 μM PLP, 3 mM MgCl2, 37°C, 0.01 μM enzyme.

Here are results for one molecule from paper PMC9356726 (Molecular Biology and Evolution, 2022).

In general, Km refers to the concentration of substrate that gives half-maximal velocity. With `N[C@@H](CO)C(=O)O` [serine], the Michaelis-Menten constant (Km) came out at 6.8 ± 1.4 mM.
